Reference: BindingDB's records for doi:10.1016/s0960-894x(00)00185-2 (Yale University, 2000)

Assays:
[1] = target: T1, 5-hydroxytryptamine receptor 2C (Rattus norvegicus, UniProt P08909); test: ChEBML_2831
T1 sequence (P08909 whole entry): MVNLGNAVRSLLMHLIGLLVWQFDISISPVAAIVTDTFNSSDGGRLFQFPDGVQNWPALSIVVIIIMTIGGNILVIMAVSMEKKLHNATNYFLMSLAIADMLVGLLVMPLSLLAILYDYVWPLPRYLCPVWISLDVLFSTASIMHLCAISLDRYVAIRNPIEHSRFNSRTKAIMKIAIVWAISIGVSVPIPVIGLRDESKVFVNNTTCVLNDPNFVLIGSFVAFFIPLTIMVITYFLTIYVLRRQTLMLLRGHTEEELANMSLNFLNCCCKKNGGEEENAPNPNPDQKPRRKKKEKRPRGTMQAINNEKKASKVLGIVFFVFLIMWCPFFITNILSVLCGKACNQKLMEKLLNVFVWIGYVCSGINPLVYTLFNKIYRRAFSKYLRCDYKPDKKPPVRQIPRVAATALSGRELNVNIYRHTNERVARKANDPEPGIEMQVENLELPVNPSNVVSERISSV
Protocol: Compound was evaluated for affinity towards cerebral 5-hydroxytryptamine 2C receptor in homogenate of caudate putamen tissue from rat brain

[2] = target: 5-hydroxytryptamine receptor 2A (Rattus norvegicus, UniProt P14842); test: ChEBML_2648
Protocol: Compound was evaluated for affinity towards cerebral 5-hydroxytryptamine 2A receptor in homogenate of caudate putamen tissue from rat brain

D(1A) dopamine receptor = D(1A) dopamine receptor (Rattus norvegicus, UniProt P18901); test: ChEBML_59008
Protocol: Compound was evaluated for affinity towards dopamine D1-like receptor in homogenate of caudate putamen tissue from rat brain

[3] = target: D(2) dopamine receptor (Rattus norvegicus) (UniProt P61169); test: Compound was evaluated for affinity towards dopamine D2-like receptor in homogenate of caudate putamen tissue from rat brain
D(2) dopamine receptor (Rattus norvegicus), sequence (P61169 whole entry, looked up): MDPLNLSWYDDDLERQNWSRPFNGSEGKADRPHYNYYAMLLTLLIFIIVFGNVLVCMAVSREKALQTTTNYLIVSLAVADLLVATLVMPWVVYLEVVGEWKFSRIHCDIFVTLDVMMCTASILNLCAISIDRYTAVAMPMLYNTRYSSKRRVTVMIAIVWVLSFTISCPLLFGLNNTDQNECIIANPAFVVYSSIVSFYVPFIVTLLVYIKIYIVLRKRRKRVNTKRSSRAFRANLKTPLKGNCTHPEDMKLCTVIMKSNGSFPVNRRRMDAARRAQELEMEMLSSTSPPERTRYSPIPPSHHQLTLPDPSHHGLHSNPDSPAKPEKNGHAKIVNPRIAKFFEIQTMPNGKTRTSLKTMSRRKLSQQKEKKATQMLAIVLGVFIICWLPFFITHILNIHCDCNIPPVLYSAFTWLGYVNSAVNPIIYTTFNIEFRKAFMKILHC

D(1A) dopamine receptor, sequence (P18901 whole entry): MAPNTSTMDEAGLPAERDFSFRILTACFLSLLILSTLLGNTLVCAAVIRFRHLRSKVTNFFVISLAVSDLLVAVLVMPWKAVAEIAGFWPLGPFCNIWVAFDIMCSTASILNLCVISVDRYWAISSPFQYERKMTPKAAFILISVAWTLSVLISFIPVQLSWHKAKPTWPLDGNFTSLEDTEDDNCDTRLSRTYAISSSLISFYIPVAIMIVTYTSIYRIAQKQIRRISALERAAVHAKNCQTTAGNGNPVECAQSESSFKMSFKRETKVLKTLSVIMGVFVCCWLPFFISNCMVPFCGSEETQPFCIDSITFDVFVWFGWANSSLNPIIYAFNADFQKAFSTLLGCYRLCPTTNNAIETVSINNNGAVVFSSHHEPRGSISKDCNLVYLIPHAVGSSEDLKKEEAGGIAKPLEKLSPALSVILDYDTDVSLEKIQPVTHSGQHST
5-hydroxytryptamine receptor 2A, sequence (P14842 whole entry): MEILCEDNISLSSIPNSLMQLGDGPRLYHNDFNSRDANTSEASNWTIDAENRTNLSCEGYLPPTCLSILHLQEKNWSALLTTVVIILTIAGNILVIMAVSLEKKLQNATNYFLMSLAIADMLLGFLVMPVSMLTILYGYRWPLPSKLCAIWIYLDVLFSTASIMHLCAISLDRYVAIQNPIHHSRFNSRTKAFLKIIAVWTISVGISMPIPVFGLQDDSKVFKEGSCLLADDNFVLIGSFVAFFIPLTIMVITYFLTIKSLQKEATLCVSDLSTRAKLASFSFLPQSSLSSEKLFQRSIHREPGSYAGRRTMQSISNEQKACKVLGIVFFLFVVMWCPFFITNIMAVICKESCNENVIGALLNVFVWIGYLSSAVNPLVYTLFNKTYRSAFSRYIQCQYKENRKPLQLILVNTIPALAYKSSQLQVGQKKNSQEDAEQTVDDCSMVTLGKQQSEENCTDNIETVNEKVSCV

SMILES | Ki [1] [nM] | Ki [2] [nM] | Ki (D(1A) dopamine receptor) [nM] | Ki [3] [nM]
CN1CCc2cc(Cl)c(O)cc2C(c2cccc(C(=O)C3=CC=C[C@@H]3[Re]([CH]=O)([CH]=O)[CH]=O)c2)C1 (some centres undefined) [Cyclopentadienyltricarbonylrheniumbenzazepine (3`-CPTR-SCH-23390)] | 106 | 227 | 2.9 | > 10000
CN1CCc2cc(Cl)c(O)cc2C(c2ccccc2C(=O)C2=CC=C[C@@H]2[Re]([CH]=O)([CH]=O)[CH]=O)C1 (some centres undefined) [Cyclopentadienyltricarbonylrheniumbenzazepine (2`-CPTR-SCH-23390)] | 29 | 17 | 0.61 | 549
CN1CCc2cc(Cl)c(O)cc2C(c2cccc(Br)c2)C1 (centres undefined) [5-(3-Bromo-phenyl)-8-chloro-3-methyl-2,3,4,5-tetrahydro-1H-benzo[d]azepin-7-ol] | – | – | – | 1120
